How the values were obtained:
Assay in all cases: Test C preemergence
Format in all cases: in vivo
[1] = tested on: Galium (catchweed bedstraw, Galium aparine); conditions: for Plant response rating, Galium: scale 0 to 100, 0 no effect, 100 complete control
How it was run: (§1)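 Visual 0 (no effect) to 100 (complete control) ratings versus controls, taken 13–15 d after treatment in the greenhouse; dash means no result. Compounds in a surfactant-containing non-phytotoxic solvent blend were applied preemergence to seeds in loam-sand soil or postemergence to 1- to 4-leaf plants (2–18 cm) in peat-based medium.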

[2] = tested on: ragweed (common ragweed, Ambrosia elatior); conditions: for Plant response rating, Ragweed: scale 0 to 100, 0 no effect, 100 complete control
How it was run: as §1

[3] = tested on: corn (Zea mays); conditions: for Plant response rating, Corn: scale 0 to 100, 0 no effect, 100 complete control
How it was run: as §1

[4] = tested on: foxtail, giant (giant foxtail, Setaria faberii); conditions: for Plant response rating, Foxtail, Giant: scale 0 to 100, 0 no effect, 100 complete control
How it was run: as §1

[5] = tested on: johnsongrass (Sorghum halepense); conditions: for Plant response rating, Johnsongrass: scale 0 to 100, 0 no effect, 100 complete control
How it was run: as §1

[6] = tested on: barnyardgrass (Echinochloa crus-galli); conditions: for Plant response rating, Barnyardgrass: scale 0 to 100, 0 no effect, 100 complete control
How it was run: as §1

[7] = tested on: morningglory (Ipomoea coccinea); conditions: for Plant response rating, Morningglory: scale 0 to 100, 0 no effect, 100 complete control
How it was run: as §1

[8] = tested on: crabgrass, large (large crabgrass, Digitaria sanguinalis); conditions: for Plant response rating, Crabgrass, Large: scale 0 to 100, 0 no effect, 100 complete control
How it was run: as §1

[9] = tested on: ryegrass, Italian (Italian ryegrass, Lolium multiflorum); conditions: for Plant response rating, Ryegrass, Italian: scale 0 to 100, 0 no effect, 100 complete control
How it was run: as §1

[10] = tested on: oilseed rape (Brassica napus); conditions: for Plant response rating, Oilseed Rape: scale 0 to 100, 0 no effect, 100 complete control
How it was run: as §1

[11] = tested on: lambsquarters (Chenopodium album); conditions: for Plant response rating, Lambsquarters: scale 0 to 100, 0 no effect, 100 complete control
How it was run: as §1

[12] = tested on: nutsedge, yellow (yellow nutsedge, Cyperus esculentus); conditions: for Plant response rating, Nutsedge, Yellow: scale 0 to 100, 0 no effect, 100 complete control
How it was run: as §1

[13] = tested on: waterhemp (common waterhemp, Amaranthus rudis); conditions: for Plant response rating, Waterhemp: scale 0 to 100, 0 no effect, 100 complete control
How it was run: as §1

[14] = tested on: velvetleaf (Abutilon theophrasti); conditions: for Plant response rating, Velvetleaf: scale 0 to 100, 0 no effect, 100 complete control
How it was run: as §1

[15] = tested on: wheat (winter wheat, Triticum aestivum); conditions: for Plant response rating, Wheat: scale 0 to 100, 0 no effect, 100 complete control
How it was run: as §1

[16] = tested on: soybean (Glycine max); conditions: for Plant response rating, Soybean: scale 0 to 100, 0 no effect, 100 complete control
How it was run: as §1

[17] = tested on: pigweed (Amaranthus retroflexus); conditions: for Plant response rating, Pigweed: scale 0 to 100, 0 no effect, 100 complete control
How it was run: as §1

[18] = 31 g ai/ha, 0 is no effect, 100 is complete control

CN1CC(c2ccc(C(F)(F)F)cc2)C(C(=O)Nc2ccccc2S(C)(=O)=O)C1=O (centres unmarked) [Compound 624]
Plant response rating (scale of 0 to 100), Galium [1, 18]: 50
Plant response rating, Galium ([1]; 62 g ai/ha): 85
Plant response rating, Galium ([1]; 125 g ai/ha): 80
Plant response rating, Galium ([1]; 250 g ai/ha): 85
Plant response rating (scale of 0 to 100), Ragweed [2, 18]: 25
Plant response rating, Ragweed ([2]; 62 g ai/ha): 55
Plant response rating, Ragweed ([2]; 125 g ai/ha): 75
Plant response rating, Ragweed ([2]; 250 g ai/ha): 80
Plant response rating (scale of 0 to 100), Corn [3, 18]: 0
Plant response rating, Corn ([3]; 62 g ai/ha): 0
Plant response rating, Corn ([3]; 125 g ai/ha): 5
Plant response rating, Corn ([3]; 250 g ai/ha): 65
Plant response rating (scale of 0 to 100), Foxtail, Giant [4, 18]: 85
Plant response rating, Foxtail, Giant ([4]; 62 g ai/ha): 90
Plant response rating, Foxtail, Giant ([4]; 125 g ai/ha): 90
Plant response rating, Foxtail, Giant ([4]; 250 g ai/ha): 95
Plant response rating (scale of 0 to 100), Johnsongrass [5, 18]: 0
Plant response rating, Johnsongrass ([5]; 62 g ai/ha): 0
Plant response rating, Johnsongrass ([5]; 125 g ai/ha): 0
Plant response rating, Johnsongrass ([5]; 250 g ai/ha): 25
Plant response rating (scale of 0 to 100), Barnyardgrass [6, 18]: 75
Plant response rating, Barnyardgrass ([6]; 62 g ai/ha): 90
Plant response rating, Barnyardgrass ([6]; 125 g ai/ha): 95
Plant response rating, Barnyardgrass ([6]; 250 g ai/ha): 95
Plant response rating (scale of 0 to 100), Morningglory [7, 18]: 0
Plant response rating, Morningglory ([7]; 62 g ai/ha): 0
Plant response rating, Morningglory ([7]; 125 g ai/ha): 30
Plant response rating, Morningglory ([7]; 250 g ai/ha): 35
Plant response rating (scale of 0 to 100), Crabgrass, Large [8, 18]: 95
Plant response rating, Crabgrass, Large ([8]; 62 g ai/ha): 100
Plant response rating, Crabgrass, Large ([8]; 125 g ai/ha): 100
Plant response rating, Crabgrass, Large ([8]; 250 g ai/ha): 98
Plant response rating (scale of 0 to 100), Ryegrass, Italian [9, 18]: 10
Plant response rating, Ryegrass, Italian ([9]; 62 g ai/ha): 40
Plant response rating, Ryegrass, Italian ([9]; 125 g ai/ha): 30
Plant response rating, Ryegrass, Italian ([9]; 250 g ai/ha): 30
Plant response rating (scale of 0 to 100), Oilseed Rape [10, 18]: 75
Plant response rating, Oilseed Rape ([10]; 62 g ai/ha): 80
Plant response rating, Oilseed Rape ([10]; 125 g ai/ha): 85
Plant response rating, Oilseed Rape ([10]; 250 g ai/ha): 85
Plant response rating (scale of 0 to 100), Lambsquarters [11, 18]: 35
Plant response rating, Lambsquarters ([11]; 62 g ai/ha): 40
Plant response rating, Lambsquarters ([11]; 125 g ai/ha): 70
Plant response rating, Lambsquarters ([11]; 250 g ai/ha): 60
Plant response rating (scale of 0 to 100), Nutsedge, Yellow [12, 18]: 0
Plant response rating, Nutsedge, Yellow ([12]; 62 g ai/ha): 0
Plant response rating, Nutsedge, Yellow ([12]; 125 g ai/ha): 25
Plant response rating, Nutsedge, Yellow ([12]; 250 g ai/ha): 50
Plant response rating (scale of 0 to 100), Waterhemp [13, 18]: 85
Plant response rating, Waterhemp ([13]; 62 g ai/ha): 90
Plant response rating, Waterhemp ([13]; 125 g ai/ha): 90
Plant response rating, Waterhemp ([13]; 250 g ai/ha): 100
Plant response rating (scale of 0 to 100), Velvetleaf [14, 18]: 10
Plant response rating, Velvetleaf ([14]; 62 g ai/ha): 30
Plant response rating, Velvetleaf ([14]; 125 g ai/ha): 45
Plant response rating, Velvetleaf ([14]; 250 g ai/ha): 65
Plant response rating (scale of 0 to 100), Wheat [15, 18]: 0
Plant response rating, Wheat ([15]; 62 g ai/ha): 35
Plant response rating, Wheat ([15]; 125 g ai/ha): 45
Plant response rating, Wheat ([15]; 250 g ai/ha): 80
Plant response rating (scale of 0 to 100), Soybean [16, 18]: 0
Plant response rating, Soybean ([16]; 62 g ai/ha): 0
Plant response rating, Soybean ([16]; 125 g ai/ha): 15
Plant response rating, Soybean ([16]; 250 g ai/ha): 40
Plant response rating (scale of 0 to 100), Pigweed [17, 18]: 80
Plant response rating, Pigweed ([17]; 62 g ai/ha): 85
Plant response rating, Pigweed ([17]; 125 g ai/ha): 85
Plant response rating, Pigweed ([17]; 250 g ai/ha): 90

— patent US12077503B2, “Substituted cyclic amides and their use as herbicides” (FMC CORPORATION, priority 2015, dated 2024)
